Ki data for 3 molecules are collected here from BindingDB's records for doi:10.1021/jm970857f (Eli Lilly, 1998).

Structures can show the parent of a compound that is named as a salt.

The assay addresses T1, Alpha-1A adrenergic receptor (Rattus norvegicus, UniProt P43140).
T1 sequence (P43140 whole entry): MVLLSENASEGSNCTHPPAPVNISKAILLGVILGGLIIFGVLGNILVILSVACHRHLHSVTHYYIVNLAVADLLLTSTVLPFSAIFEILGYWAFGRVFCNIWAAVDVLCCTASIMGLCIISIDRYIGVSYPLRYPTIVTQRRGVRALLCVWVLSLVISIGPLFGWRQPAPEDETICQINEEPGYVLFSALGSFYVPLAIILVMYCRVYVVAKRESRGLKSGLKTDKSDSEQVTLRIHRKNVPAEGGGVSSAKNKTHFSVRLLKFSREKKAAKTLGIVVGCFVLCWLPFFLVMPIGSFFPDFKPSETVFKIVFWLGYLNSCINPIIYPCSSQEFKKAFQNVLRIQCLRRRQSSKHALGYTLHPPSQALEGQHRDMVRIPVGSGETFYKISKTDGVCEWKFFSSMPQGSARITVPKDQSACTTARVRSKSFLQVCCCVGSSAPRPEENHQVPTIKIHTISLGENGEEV
Take `CC(C)n1nc(C(=O)NC2CCN(CCNS(C)(=O)=O)CC2)c2ccccc21` [N-(1-(2-((N-Methylsulfonyl)amino)ethyl)piperidin-4-yl)-1-isopropylindazole-3-carboxamide Maleate]: the Ki is more than 10 µM.
The molecule `CC(C)n1nc(C(=O)NCCN2CCC(NC(=O)OCc3ccccc3)CC2)c2ccccc21` [N-(2-(4-((Benzyloxycarbonyl)amino)-1-piperidinyl)-ethyl)-1-isopropylindazole-3-carboxamide Oxalate] displayed a Ki of more than 10 µM.
Turning to `CC(C)n1nc(C(=O)NC2CCN(Cc3ccccc3)CC2)c2ccccc21` [N-(1-Benzylpiperidin-4-yl)-1-isopropylindazole-3-carboxamide Hydrochloride], the Ki was more than 10 µM.

One may read the Ki as a measure of affinity in units of concentration, obtained from inhibition or displacement. A lower Ki goes with tighter binding.
